Measured values reported in paper PMC3570474, “Biochemical Characterization of Uracil Phosphoribosyltransferase from Mycobacterium tuberculosis” (PLoS ONE, 2013).
Several values for one entry are separate records, joined by “and”; a condition that tells them apart may be missing. Equal values may be shown once.

How the values were obtained:
[1] = target: T1, MtUPRT (Mycobacterium tuberculosis, UniProt P9WFF3); test: Evaluation of nucleotides as allosteric effectors; assay type: biochemical; settings: for activation or inhibition of MtUPRT: 500 µM nucleotide, 128 s
[2] = target: T1, MtUPRT; test: biochemical; assay type: binding; settings: for Kd: K d; for ΔG / ΔH / ΔS: reverse titration, 25°C
[3] = target: T1, MtUPRT; test: Steady-state kinetics of MtUPRT, continuous spectrophotometric assay (uracil to UMP, 280 nm); assay type: biochemical; settings: for k cat/K (true steady-state) / true steady-state K (K PRPP, K uracil): initial velocity pattern, varying PRPP at fixed-varying uracil; for true steady-state K (K PRPP, K uracil): sequential mechanism fit
[4] = target: T1, MtUPRT; test: Evaluation of pyrimidine bases as substrates, discontinuous assay (HPLC, LC-ESI-MS/MS); assay type: biochemical; settings: 0.1 mM base, 1 mM PRPP, 37°C 30 min, confirmed by LC-ESI-MS/MS
Description: Uracil, thymine and cytosine pyrimidine bases were evaluated as possible MtUPRT substrates. The bases were added to MtUPRT reaction mixtures and protein separated by ultrafiltration, and product formation analyzed by HPLC monitoring absorbance at 254, 260, and 280 nm. […] The MtUPRT enzyme activity measurements henceforth described were carried out using uracil as substrate and a continuous spectrophotometric assay.
Reaction mixtures containing 50 mM Tris pH 7.8, 10 mM MgCl2, 1 mM PRPP, and 0.1 mM of the pyrimidine base to be tested (uracil, cytosine, or thymine) were initiated by the addition of 54 nM of homogeneous MtUPRT. The reactions were incubated at 37°C for 30 min and then boiled for 3 min to stop the reaction. The mixtures were passed through a Centricon (10,000 Da molecular weight cut off) to remove the protein content prior to analysis. The nucleotide contents of the samples were analyzed using an HPLC Äkta Purifier system and a Sephasil peptide C18 5 µm ST 4.6/250 column. A 500 µL aliquot of each sample was loaded on the column and adsorbed material isocratically eluted with 5 mM potassium phosphate pH 4.0 containing 5% acetonitrile for 10 min at 1 mL min^−1flow rate. Nucleotides and bases were monitored at 254, 260, and 280 nm.
Another method used to analyze the nucleotide content was the LC-ESI-MS/MS. This experiment was employed to confirm results obtained in the analysis described above. The chromatography was carried out with an Eclipse plus C18 4.6/150 column (Agilent). The injected sample volume was 20 µL, which was eluted isocratically with 10 mM ammonium acetate containing 40% acetonitrile at 0.8 ml min^−1 flow rate. The LC detector was an ESI coupled to the 3200 Q-Trap (Applied Biosystems MDS SCIEX), employing the ESI-MS/MS parameters as described by others. During the chromatography run, precursor ion scan (Prec) and enhance product ion scan (EPI) were monitored. Prec monitored precursors of mass over charge ratio (m/z) of compounds containing a phosphate group (H2PO4 ^−, m/z 97) and EPI gave the fragmentation spectra of the nucleotides m/z.

[5] = tested on: S. solfataricus UPRT; parameters: method as in PMID 15752360; settings: cited from earlier work
[6] = tested on: G. intestinalis UPRT; parameters: method as in PMID 7622327; settings: cited from earlier work
[7] = tested on: UPRT from T. gondii; parameters: method as in PMID 11773618; settings: also stabilizes the more active tetrameric form; cited from earlier work
[8] = tested on: E. coli UPRT; parameters: method as in PMID 8856065; settings: without affecting V max; cited from earlier work
[9] = target: MtUPRT:PRPP binary complex (Mycobacterium tuberculosis, UniProt P9WFF3); test: Isothermal titration calorimetry of GTP binding to PRPP bound enzyme; settings: 10 mM GTP titrated; MtUPRT 139 µM incubated with 100 µM PRPP for 1 hour
Description: Furthermore, no binding of GTP either to the free enzyme or to the PRPP bound enzyme was detected by ITC (data not shown). The incubation of PRPP with MtUPRT prior to the titration of GTP was tested to determine whether the binding of PRPP to MtUPRT generates conformational changes on the enzyme that could enable GTP binding. However, no binding of GTP to MtUPRT:PRPP binary complex could be detected (data now shown).
ITC experiments were carried out using an iTC200 Microcalorimeter (MicroCal Inc). Ligands and enzyme were prepared in 100 mM Hepes pH 7.5 containing 10 mM MgCl2. For direct titrations the sample cell was filled with 139 µM of MtUPRT (200 µL) and titrated (39.7 µL) with different concentrations of either substrates or products: 200 µM of uracil, 500 µM of PRPP, 500 µM of UMP, and 350 µM of PPi. In addition, titration was performed with 10 mM of GTP and the sample cell was filled with either free MtUPRT (139 µM) or MtUPRT (139 µM) incubated with 100 µM PRPP for 1 hour before starting the measurements. Reverse titrations were also carried out where the sample cell was filled with either 90 µM of PRPP or 150 µM of UMP and titrated with 633 µM of UPRT.
A stirring speed of 500 rpm and a temperature of 25°C were employed for all ITC experiments. […] The experimental data were evaluated using the Origin 7 SR4 software (MicroCal).

[10] = tested on: B. caldolyticus UPRT; parameters: method as in PMID 9268683; settings: hyperbolic saturation curve; cited from earlier work
[11] = target: the molecule itself; test: AUC
[12] = PRPP variable substrate, fixed-saturating uracil 35 µM
[13] = in the presence of 100 µM GTP, PRPP variable substrate, uracil 35 µM
[14] = in the presence of 100 µM GTP, uracil variable substrate, PRPP 350 µM
[15] = uracil variable substrate, fixed-saturating PRPP 350 µM

## O=c1ccn([C@@H]2O[C@H](COP(=O)(O)OP(=O)(O)OP(=O)(O)O)[C@@H](O)[C@H]2O)c(=O)[nH]1 [UTP, uridine 5′-triphosphate]
[1]; 350 µM PRPP, 35 µM uracil
  activation or inhibition of MtUPRT: not significantly activated or inhibited

## O=P(O)(O)OP(=O)(O)O [PPi, pyrophosphate]
[2]
  binding to free MtUPRT enzyme (heat changes): no significant heat changes

## O=P(O)(O)OC[C@H]1O[C@H](OP(=O)(O)OP(=O)(O)O)[C@H](O)[C@@H]1O [PRPP, 5-phosphoribosyl-α-1-pyrophosphate]
[2]
  Kd: 5 µM and 48 µM and 6 µM and 9 µM
[2]; Subunit 1
  ΔG: -29 ± 4.2 kJ/mol
  ΔH: 11.7 ± 1.3 kJ/mol
  ΔS: 34±6 cal mol^−1 deg^−1
[2]; Subunit 2
  ΔG: -25 ± 8.4 kJ/mol
  ΔH: -13 ± 66.9 kJ/mol
  ΔS: 10±3 cal mol^−1 deg^−1
[2]; Subunit 3
  ΔG: -29 ± 8.4 kJ/mol
  ΔH: -172 ± 134 kJ/mol
  ΔS: −114±33 cal mol^−1 deg^−1
[2]; Subunit 4
  ΔG: -29 ± 13 kJ/mol
  ΔH: 243 ± 92 kJ/mol
  ΔS: 217±85 cal mol^−1 deg^−1
[2]; pH 7.5
  K a: 2.0 (±3.6)×10^5 M^−1 and 2.1 (±0.6)×10^4 M^−1 and 1.6 (±0.5)×10^5 M^−1 and 1.1 (±0.4)×10^5 M^−1
[3]; [12]
  apparent V max: 1.75±0.02 U mg^−1
  apparent k cat: 0.65 ± 0.01 s⁻¹
[3]; PRPP variable substrate, fixed-saturating uracil 35 µM, Michaelis-Menten fit
  apparent K M: 12.4 ± 0.6 µM
[3]; [13]
  apparent K M: 17 ± 2 µM
  apparent V max: 1.60±0.04 U mg^−1
  apparent k cat: 0.59 ± 0.01 s⁻¹
[3]
  k cat/K (true steady-state): 4.1 (±0.2)×10^4 M^−1 s^−1
  true steady-state K (K PRPP, K uracil): 14 ± 1 µM

## O=c1ccn([C@@H]2O[C@H](COP(=O)(O)O)[C@@H](O)[C@H]2O)c(=O)[nH]1 [UMP, uridine 5′-monophosphate]
[2]
  Kd: 7 µM and 8 µM and 13 µM and 14 µM
[2]; Subunit 1
  ΔG: -29 ± 8.4 kJ/mol
  ΔH: -21.3 ± 1.7 kJ/mol
  ΔS: 5±1 cal mol^−1 deg^−1
[2]; Subunit 2
  ΔG: -29 ± 8.4 kJ/mol
  ΔH: 25 ± 13 kJ/mol
  ΔS: 45±16 cal mol^−1 deg^−1
[2]; Subunit 3
  ΔG: -29 ± 13 kJ/mol
  ΔH: -100 ± 46 kJ/mol
  ΔS: −56±21 cal mol^−1 deg^−1
[2]; Subunit 4
  ΔG: -29 ± 8.4 kJ/mol
  ΔH: 117 ± 75.3 kJ/mol
  ΔS: 117±43 cal mol^−1 deg^−1
[1]; 100 µM UMP, 350 µM PRPP, 35 µM uracil
  inhibition of MtUPRT: enzyme inhibition was observed

## Nc1ncnc2c1ncn2[C@@H]1O[C@H](COP(=O)(O)OP(=O)(O)OP(=O)(O)O)[C@@H](O)[C@H]1O [ATP, adenosine 5′-triphosphate]
[1]; 350 µM PRPP, 35 µM uracil
  activation or inhibition of MtUPRT: not significantly activated or inhibited

## Cc1c[nH]c(=O)[nH]c1=O [thymine]
[4]
  substrate activity (product formation): no product formation could be detected

## Nc1cc[nH]c(=O)n1 [cytosine]
[4]
  substrate activity (product formation): no product formation could be detected

## Nc1ccn([C@@H]2O[C@H](COP(=O)(O)OP(=O)(O)OP(=O)(O)O)[C@@H](O)[C@H]2O)c(=O)n1 [CTP, cytidine 5′-triphosphate]
[5]; in the presence of UMP
  effect of CTP on activity: inhibited the enzyme
[1]; 500 µM CTP together with 100 µM UMP
  effect on UMP inhibition of MtUPRT: no increase in UMP inhibition occurred
[1]; 350 µM PRPP, 35 µM uracil
  activation or inhibition of MtUPRT: not significantly activated or inhibited

## Nc1nc2c(ncn2[C@@H]2O[C@H](COP(=O)(O)OP(=O)(O)OP(=O)(O)O)[C@@H](O)[C@H]2O)c(=O)[nH]1 [GTP, guanosine 5′-triphosphate]
[6]
  effect of GTP on activity: dramatic increase in the activity
[7]
  effect of GTP on activity: activated by GTP
[2]
  binding to free MtUPRT enzyme (heat changes): no binding
[3]; 100 µM GTP
  effect on kinetic parameters for MtUPRT: not affected
[5]
  effect of GTP on k cat and K M for PRPP and uracil: increase k cat and K M values
[1]; 350 µM PRPP, 35 µM uracil
  activation or inhibition of MtUPRT: not significantly activated or inhibited
[8]
  effect of GTP on kinetic parameters: lowered the K M value for PRPP
[9]
  binding to MtUPRT:PRPP binary complex: no binding

## O=c1cc[nH]c(=O)[nH]1 [uracil]
[10]
  K M for uracil: 2 µM
[4]
  substrate activity (product formation): specific for uracil
[2]
  binding to free MtUPRT enzyme (heat changes): no significant heat changes
[3]; [14]
  K 0.5: 2.9 ± 0.1 µM
  apparent V max: 1.54±0.02 U mg^−1
  apparent k cat: 0.57 ± 0.01 s⁻¹
  n (Hill coefficient): 2.2±0.1
[3]
  k cat/K (true steady-state): 2.2 (±0.3)×10^5 M^−1 s^−1
  true steady-state K (K PRPP, K uracil): 2.6 ± 0.4 µM
[3]; [15]
  apparent V max: 1.73±0.03 U mg^−1
  apparent k cat: 0.64 ± 0.01 s⁻¹
  n (Hill coefficient): 1.9±0.1
[3]; uracil variable substrate, fixed-saturating PRPP 350 µM, Hill fit
  K 0.5: 3.6 ± 0.1 µM

B1: Uracil phosphoribosyltransferase from Mycobacterium tuberculosis (enzyme)
chain: MQVHVVDHPLAAARLTTLRDERTDNAGFRAALRELTLLLIYEATRDAPCEPVPIRTPLAETVGSRLTKPPLLVPVLRAGLGMVDEAHAALPEAHVGFVGVARDEQTHQPVPYLDSLPDDLTDVPVMVLDPMVATGGSMTHTLGLLISRGAADITVLCVVAAPEGIAALQKAAPNVRLFTAAIDEGLNEVAYIVPGLGDAGDRQFGPR
notes: also called MtUPRT; UPRT
[11]
  Kd: ~1 µM
  stoichiometry N: 4
